Article PMC8708503, “Scalarane Sesterterpenoids with Antibacterial and Anti-Proliferative Activities from the Mushroom Neonothopanus nambi” (Molecules, 2021)
In brackets after ≈: the same amount, converted by molar mass.

How the values were obtained:
Format in all cases: cell-based
[1] = system: Bacillus subtilis ATCC 6633; assay: Antibacterial assay (CLSI), B. subtilis; set-up: key to MIC, Bacillus subtilis ATCC 6633: inactive: Inactive at >128 μg/mL; settings: Inactive at >128 μg/mL; for MIC: Bacillus subtilis, ATCC6633
Description: (§1) Five microorganism cultures (Methicillin resistant S. aureus DMST 20654, S. aureus ATCC 25923, S. sonnei ATCC 11060, B. subtilis ATCC 6633, and B. cereus ATCC 11778) were used. The experiments were performed at the Department of Microbiology, Faculty of Science, Khon Kaen University, Thailand. The antibacterial assay was performed as recommended by the Clinical and Laboratory Standards Institute. The standard drugs kanamycin and chloramphenicol were used as positive controls.

Vero cells = assay: MTT cytotoxicity assay, Vero cells; settings: 72 h, Mean ± S.D. (n = 3)
Description: (§2) The anti-proliferative effect on cancer cells was evaluated by MTT (3-(4,5-dimethylthiazol-2-yl)-2,5-diphenyltetrazolium bromide) assay. Cells (8 × 10^3 cell/well) were seeded onto 96-well plates and incubated for 24 h to allow adherence. After 24 h, the cells were exposed to increasing concentrations (3.12, 6.25, 12.5, 25, 50, and 100 μg/mL) of pure metabolites in a mixture of DMSO and ethanol (1:1) for 72 h. Control groups were treated with a mixture of DMSO and ethanol (1:1). After the indicated time, the medium was replaced with 110 μL of fresh medium containing MTT (0.5 mg/mL in PBS) (Sigma Chemical Co., St Louis, MO, USA) and incubated for 2 h. The formazan formed after conversion of MTT was dissolved in DMSO. The absorbance of formazan was measured with a microplate reader (Bio-Rad Laboratories, Hercules, CA, USA) at the wavelength of 550 nm with a reference wavelength of 655 nm. The percentage of viable cells which corresponds to the production of formazan was calculated using the following formula [19]. %cell viability = [Sample (A550 - […])/Control (A550 - […])] × 100(1)

[2] = system: Staphylococcus aureus ATCC 25923; assay: Antibacterial assay (CLSI), S. aureus; set-up: key to MIC, Staphylococcus aureus ATCC 25923: inactive: Inactive at >128 μg/mL; settings: Inactive at >128 μg/mL; for MIC: Staphylococcus aureus, ATCC25923
Description: as §1

HT29 human colon cancer = assay: MTT anti-proliferative assay, HT29; settings: Mean ± S.D. (n = 3)
Description: as §2

[3] = system: A549 human lung carcinoma cell line; assay: MTT anti-proliferative assay, A549; settings: Mean ± S.D. (n = 3)
Description: as §2

[4] = system: Bacillus cereus ATCC 11778; assay: Antibacterial assay (CLSI), B. cereus; set-up: key to MIC, Bacillus cereus ATCC 11778: inactive: Inactive at >128 μg/mL; settings: Inactive at >128 μg/mL; for MIC: Bacillus cereus, ATCC11778
Description: as §1

[5] = system: Methicillin Resistant Staphylococcus aureus DMST 20654; assay: Antibacterial assay (CLSI), MRSA; set-up: key to MIC, Methicillin Resistant Staphylococcus aureus DMST 20654: inactive: Inactive at >128 μg/mL; settings: Inactive at >128 μg/mL; for MIC: Staphylococcus aureus
Description: as §1

[6] = system: HeLa human cervical cancer; assay: MTT anti-proliferative assay, HeLa; settings: 72 h, Mean ± S.D. (n = 3)
Description: as §2

[7] = system: HCT-116 human colon cancer; assay: MTT anti-proliferative assay, HCT-116; settings: Mean ± S.D. (n = 3)
Description: as §2

MIC [1] [µg/mL] | MIC [2] [µg/mL] | IC50 (HT29 human colon cancer; Homo sapiens, HT-29, 72 h) [µM] | IC50 ([3]; Homo sapiens, A549, 72 h) [µM] | MIC [4] [µg/mL] | MIC [5] [µg/mL] | IC50 ([6]; Homo sapiens, HeLa) [µM] | IC50 ([7]; Homo sapiens, HCT-116, 72 h) [µM] | MIC, Bacillus subtilis ATCC 6633 [1] | MIC, Bacillus cereus ATCC 11778 [4] | MIC, Methicillin Resistant Staphylococcus aureus DMST 20654 [5] | MIC, Staphylococcus aureus ATCC 25923 [2] | Compound | IC50 (Vero cells; Chlorocebus sabaeus, Vero) [µM] | IC50, Vero Cells (Vero cells) | IC50 (Vero cells) [µM] | IC50 (HT29 human colon cancer; 72 h) [µM] | IC50 ([3]; 72 h) [µM] | IC50 [6] [µM] | IC50 ([7]; 72 h) [µM]
32 (≈ 62.2 µM) | 128 (≈ 249 µM) | 33 ± 1.63 | 85 ± 10.2 | 32 (≈ 62.2 µM) | 128 (≈ 249 µM) | 73.2 ± 5.37 | 14.3 ± 0.56 |  |  |  |  | CC(=O)OC1CC2(C)C3CCc4cocc4C3(C)CC(OC(=O)CC(=O)O)C2C2(C)CCCC(C)(C)C12 (centres unmarked) [Compound 2, Nambiscalarane C] | > 100 |  |  |  |  |  | 
 | 128 (≈ 250 µM) | 19.6 ± 2.32 | 22.9 ± 1.99 |  |  | 23.7 ± 0.51 | 13.4 ± 0.39 | inactive | inactive | inactive |  | CC(=CC(=O)OC1CC2(C)c3cocc3CCC2C2(C)CC(O)C3C(C)(C)CCCC3(C)C12)CC(=O)O (centres unmarked) [Compound 4, Nambiscalarane E] | > 100 |  |  |  |  |  | 
64 (≈ 109 µM) |  | > 100 | > 100 | 64 (≈ 109 µM) |  | > 100 | > 100 |  |  | inactive | inactive | CC(=O)OC1CC2(C)C3CCC4=C(C(O)OC4=O)C3(C)CC(OC(=O)C=C(C)CC(=O)O)C2C2(C)CCCC(C)(C)C12 (centres unmarked) [Compound 7, Nambiscalarane H] | > 100 | no cytotoxicity |  |  |  |  | 
 |  |  |  |  |  |  |  | 8 µg/mL (≈ 16.5 µM) | 16 µg/mL (≈ 33 µM) | 4 µg/mL (≈ 8.26 µM) | 2 µg/mL (≈ 4.13 µM) | NC[C@H]1O[C@H](O[C@H]2[C@H](O)[C@@H](O[C@H]3O[C@H](CO)[C@@H](O)[C@H](N)[C@H]3O)[C@H](N)C[C@@H]2N)[C@H](O)[C@@H](O)[C@@H]1O [Kanamycin, reference compound] |  |  |  |  |  |  | 
 | 64 (≈ 112 µM) | 78.2 ± 4.28 | > 100 | 128 (≈ 224 µM) |  | 45.9 ± 2.77 | 16.5 ± 2.79 | inactive |  | inactive |  | CC(=O)OC1CC2(C)C3CCC4=C(COC4=O)C3(C)CC(OC(=O)CC(C)=CC(=O)O)C2C2(C)CCCC(C)(C)C12 (centres unmarked) [Compound 6, Nambiscalarane G] | > 100 |  |  |  |  |  | 
 |  |  |  |  |  |  |  |  |  |  |  | N.N.[Cl][Pt][Cl] [cis-platin, reference compound] |  |  | > 100 | 5.3 ± 0.23 | 16.86 ± 0.03 | 6.43 ± 0.13 | 4.93 ± 0.77
 | 128 (≈ 345 µM) | 22.71 ± 0.16 | 24.3 ± 7.56 |  |  | 40.8 ± 0.73 | 20.3 ± 3.13 | inactive | inactive | inactive |  | CC1(C)CCCC2(C)C1C(O)CC1(C)C3CCc4cocc4C3(C)CCC21 (centres unmarked) [Compound 1, Nambiscalarane B] | > 100 |  |  |  |  |  | 
4 (≈ 12.4 µM) | 8 (≈ 24.8 µM) |  |  | 4 (≈ 12.4 µM) | 8 (≈ 24.8 µM) |  |  |  |  |  |  | O=C(N[C@H](CO)[C@H](O)c1ccc([N+](=O)[O-])cc1)C(Cl)Cl [Chloramphenicol, reference compound] |  |  |  |  |  |  | 
128 (≈ 224 µM) | 16 (≈ 28 µM) | 54.5 ± 5.93 | 99.14 ± 0.36 | 128 (≈ 224 µM) |  | 72.9 ± 5.23 | 32.7 ± 2.37 |  |  | inactive |  | CC(=O)OC1CC2(C)C3CCC4=C(COC4=O)C3(C)CC(OC(=O)C=C(C)CC(=O)O)C2C2(C)CCCC(C)(C)C12 (centres unmarked) [Compound 5, Nambiscalarane F] | > 100 | no cytotoxicity |  |  |  |  | 
16 (≈ 28.8 µM) |  | 20.8 ± 0.63 | 25 ± 1.59 | 32 (≈ 57.7 µM) |  | 21.1 ± 1.66 | 21.4 ± 1.14 |  |  | inactive | inactive | CC(=O)OC1CC2(C)C3CCc4cocc4C3(C)CC(OC(=O)CC(C)=CC(=O)O)C2C2(C)CCCC(C)(C)C12 (centres unmarked) [Compound 3, Nambiscalarane D] | 70.2 ± 8.23 | no cytotoxicity |  |  |  |  | 
8 (≈ 14.4 µM) | 16 (≈ 28.8 µM) | 20.4 ± 2.07 | 27.5 ± 0.32 | 16 (≈ 28.8 µM) | 128 (≈ 231 µM) | 26.6 ± 2.58 | 24.4 ± 2.06 | 8 µg/mL (≈ 14.4 µM) |  |  |  | CC(=O)O[C@H]1C[C@]2(C)[C@H]([C@H](OC(=O)/C=C(\C)CC(=O)O)C[C@]3(C)c4cocc4CC[C@@H]23)[C@@]2(C)CCCC(C)(C)[C@H]12 [Compound 8, Nambiscalarane] | > 100 |  |  |  |  |  | 
